Experimental data taken from ChEMBL document CHEMBL1177858, “Cytotoxicity and topo I targeting activity of substituted 10--nitrogenous heterocyclic aromatic group derivatives of SN-38” (Eur J Med Chem, 2010).

What was measured:
[1] = tested on: KB; test: Cytotoxicity against human KB cells after 3 days by MTT assay; assay type: functional, cell-based
[2] = tested on: HCT-8; test: Cytotoxicity against human HCT8 cells after 3 days by MTT assay; assay type: functional, cell-based
[3] = target: T1, DNA topoisomerase 1 (Homo sapiens) (UniProt P11387); test: Inhibition of topoisomerase 1-mediated supercoiled pBR322 relaxation assessed as change in band intensity by electrophoresis relative to camptothecin; also: test concentration or dose not given here
T1 sequence (whole entry): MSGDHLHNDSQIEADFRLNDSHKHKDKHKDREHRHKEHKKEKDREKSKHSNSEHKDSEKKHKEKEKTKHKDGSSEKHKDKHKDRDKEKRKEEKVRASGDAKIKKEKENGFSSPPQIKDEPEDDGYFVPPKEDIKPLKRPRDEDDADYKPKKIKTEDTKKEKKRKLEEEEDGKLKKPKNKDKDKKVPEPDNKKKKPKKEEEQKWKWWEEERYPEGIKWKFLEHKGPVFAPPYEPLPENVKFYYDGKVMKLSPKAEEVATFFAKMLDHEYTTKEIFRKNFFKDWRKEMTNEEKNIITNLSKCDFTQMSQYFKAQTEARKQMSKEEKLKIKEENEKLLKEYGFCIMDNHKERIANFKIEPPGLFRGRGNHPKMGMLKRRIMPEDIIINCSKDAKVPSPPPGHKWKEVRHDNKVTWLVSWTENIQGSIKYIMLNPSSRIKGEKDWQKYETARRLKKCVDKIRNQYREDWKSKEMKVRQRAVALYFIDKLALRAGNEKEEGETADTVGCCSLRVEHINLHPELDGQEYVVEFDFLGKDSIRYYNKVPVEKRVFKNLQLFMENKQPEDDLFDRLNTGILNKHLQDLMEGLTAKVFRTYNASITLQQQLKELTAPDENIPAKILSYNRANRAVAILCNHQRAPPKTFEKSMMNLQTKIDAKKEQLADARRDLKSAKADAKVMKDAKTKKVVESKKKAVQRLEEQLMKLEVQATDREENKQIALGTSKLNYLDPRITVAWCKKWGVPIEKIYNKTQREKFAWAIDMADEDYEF

[4] = tested on: MCF7; test: Cytotoxicity against human MCF7 cells after 3 days by MTT assay; assay type: functional, cell-based

SMILES | IC50 [1] [nM/ml] | IC50 [2] [nM/ml] | fold change (FC) [3] | IC50 [4] [nM/ml]
CC[C@@]1(O)C(=O)OCc2c1cc1n(c2=O)Cc2cc3cc(OCC[n+]4cccc(C)c4)ccc3nc2-1.[Br-] | 1.3 | 2.95 | 1.02 | 
CC[C@@]1(O)C(=O)OCc2c1cc1n(c2=O)Cc2cc3cc(OCC[n+]4ccccc4)ccc3nc2-1.[Br-] | 0.72 | 0.97 | 1.03 | 
CC[C@@]1(O)C(=O)OCc2c1cc1n(c2=O)Cc2cc3cc(OCCCn4ccnc4)ccc3nc2-1 |  | 0.98 | 0.7 | 0.38
CC[C@@]1(O)C(=O)OCc2c1cc1n(c2=O)Cc2cc3cc(OCCC[n+]4ccccc4)ccc3nc2-1.[Br-] | 0.06 | 0.07 | 0.7 | 
CCc1c2c(nc3ccc(OCC[n+]4cccc(CO)c4)cc13)-c1cc3c(c(=O)n1C2)COC(=O)[C@]3(O)CC.[Br-] | 0.61 | 0.85 | 1.02 | 1.74
CCc1c2c(nc3ccc(OCCC[n+]4cccc(F)c4)cc13)-c1cc3c(c(=O)n1C2)COC(=O)[C@]3(O)CC.[Br-] | 1.9 | 0.43 | 0.92 | 1.92
CC[C@@]1(O)C(=O)OCc2c1cc1n(c2=O)Cc2cc3ccccc3nc2-1 [CAMPTOTHECIN] | < 0.013 | < 0.013 | 1 | 0.02
CC[C@@]1(O)C(=O)OCc2c1cc1n(c2=O)Cc2cc3cc(OCC[n+]4cccc(CO)c4)ccc3nc2-1.[Br-] | 6.57 | 7.49 | 0.7 | 
CCc1c2c(nc3ccc(OCC[n+]4ccccc4)cc13)-c1cc3c(c(=O)n1C2)COC(=O)[C@]3(O)CC.[Br-] | 0.08 | 0.52 | 1.12 | 1.56
CCc1c2c(nc3ccc(OCCC[n+]4cccc(CO)c4)cc13)-c1cc3c(c(=O)n1C2)COC(=O)[C@]3(O)CC.[Br-] | 0.52 | 0.13 | 0.95 | 1.38
CCc1c2c(nc3ccc(OCC[n+]4cccc(C(C)=O)c4)cc13)-c1cc3c(c(=O)n1C2)COC(=O)[C@]3(O)CC.[Br-] | 0.09 | 0.09 | 0.97 | 0.26
CCc1c2c(nc3ccc(OCC[n+]4cccc(C)c4)cc13)-c1cc3c(c(=O)n1C2)COC(=O)[C@]3(O)CC.[Br-] | 0.06 | 0.27 | 1.07 | 5.04
CC[C@@]1(O)C(=O)OCc2c1cc1n(c2=O)Cc2cc3cc(OCCCOc4cc(C(F)(F)F)ncn4)ccc3nc2-1 |  | 0.18 | 0.67 | 0.18
CCc1c2c(nc3ccc(OCCCOc4cc(C(F)(F)F)ncn4)cc13)-c1cc3c(c(=O)n1C2)COC(=O)[C@]3(O)CC | 0.02 | 0.07 | 0.59 | 0.08
CCc1c2c(nc3ccc(OCCC[n+]4ccccc4)cc13)-c1cc3c(c(=O)n1C2)COC(=O)[C@]3(O)CC.[Br-] | 0.02 | 0.04 | 0.96 | 0.14
CC[C@@]1(O)C(=O)OCc2c1cc1n(c2=O)Cc2cc3cc(OCC[n+]4cccc(C(C)=O)c4)ccc3nc2-1.[Br-] | 6.28 | 5.88 | 1.04 | 
CC[C@@]1(O)C(=O)OCc2c1cc1n(c2=O)Cc2cc3cc(OCCCn4cncn4)ccc3nc2-1 |  | 0.9 | 0.62 | 0.62
CC[C@@]1(O)C(=O)OCc2c1cc1n(c2=O)Cc2cc3cc(OCCCn4cnc5cncnc54)ccc3nc2-1 |  | 1.81 | 0.61 | 2.09
CCc1c2c(nc3ccc(OCCCn4cncn4)cc13)-c1cc3c(c(=O)n1C2)COC(=O)[C@]3(O)CC | 0.04 | 0.04 | 0.64 | 0.08
CC[C@@]1(O)C(=O)OCc2c1cc1n(c2=O)Cc2cc3cc(OCC[n+]4cccc(F)c4)ccc3nc2-1.[Br-] | 0.68 | 0.73 | 0.85 | 
CCc1c2c(nc3ccc(OCCCn4ccnc4)cc13)-c1cc3c(c(=O)n1C2)COC(=O)[C@]3(O)CC | 0.32 | 0.06 | 1.01 | 0.16
CCc1c2c(nc3ccc(OCC[n+]4cccc(F)c4)cc13)-c1cc3c(c(=O)n1C2)COC(=O)[C@]3(O)CC.[Br-] | 0.19 | 0.1 | 1.07 | 0.25
CC[C@@]1(O)C(=O)OCc2c1cc1n(c2=O)Cc2cc3cc(OCCC[n+]4cccc(C)c4)ccc3nc2-1.[Br-] | < 0.01 | < 0.01 | 0.72 | 
CC[C@@]1(O)C(=O)OCc2c1cc1n(c2=O)Cc2cc3c(CN(C)C)c(O)ccc3nc2-1 [TOPOTECAN] | 0.07 | 0.07 |  | 0.15
CCc1c2c(nc3ccc(OCCC[n+]4cccc(C(C)=O)c4)cc13)-c1cc3c(c(=O)n1C2)COC(=O)[C@]3(O)CC.[Br-] | 4.82 | 2.24 | 0.86 | 2.81
CCc1c2c(nc3ccc(OCCC[n+]4cccc(C)c4)cc13)-c1cc3c(c(=O)n1C2)COC(=O)[C@]3(O)CC.[Br-] | < 0.01 | < 0.01 | 0.97 | 0.11
CCc1c2c(nc3ccc(OCCCn4cnc5cncnc54)cc13)-c1cc3c(c(=O)n1C2)COC(=O)[C@]3(O)CC | 0.13 | 0.88 | 0.72 | 1.23
